According to US7691836B2, “Progesterone receptor modulators” (N.V. Organon, priority 2004, dated 2010):

Key:
progesterone receptor-B [1] = molecular target: T1, progesterone receptor-B (Homo sapiens, UniProt P06401); test: Progesterone receptor-B transactivation, antagonistic mode (inhibition of luciferase transactivation by inducer, CHO cells); format: cell-based; settings: for Emax: CHO, read-out: PRBant Eff (%); for EC50: in the presence of 0.1 nM inducer (16α)-16-ethyl-21-hydroxy-19-norpregn-4-ene-3,20-dione, read-out: PRBant EC50
T1 sequence (P06401 1-933): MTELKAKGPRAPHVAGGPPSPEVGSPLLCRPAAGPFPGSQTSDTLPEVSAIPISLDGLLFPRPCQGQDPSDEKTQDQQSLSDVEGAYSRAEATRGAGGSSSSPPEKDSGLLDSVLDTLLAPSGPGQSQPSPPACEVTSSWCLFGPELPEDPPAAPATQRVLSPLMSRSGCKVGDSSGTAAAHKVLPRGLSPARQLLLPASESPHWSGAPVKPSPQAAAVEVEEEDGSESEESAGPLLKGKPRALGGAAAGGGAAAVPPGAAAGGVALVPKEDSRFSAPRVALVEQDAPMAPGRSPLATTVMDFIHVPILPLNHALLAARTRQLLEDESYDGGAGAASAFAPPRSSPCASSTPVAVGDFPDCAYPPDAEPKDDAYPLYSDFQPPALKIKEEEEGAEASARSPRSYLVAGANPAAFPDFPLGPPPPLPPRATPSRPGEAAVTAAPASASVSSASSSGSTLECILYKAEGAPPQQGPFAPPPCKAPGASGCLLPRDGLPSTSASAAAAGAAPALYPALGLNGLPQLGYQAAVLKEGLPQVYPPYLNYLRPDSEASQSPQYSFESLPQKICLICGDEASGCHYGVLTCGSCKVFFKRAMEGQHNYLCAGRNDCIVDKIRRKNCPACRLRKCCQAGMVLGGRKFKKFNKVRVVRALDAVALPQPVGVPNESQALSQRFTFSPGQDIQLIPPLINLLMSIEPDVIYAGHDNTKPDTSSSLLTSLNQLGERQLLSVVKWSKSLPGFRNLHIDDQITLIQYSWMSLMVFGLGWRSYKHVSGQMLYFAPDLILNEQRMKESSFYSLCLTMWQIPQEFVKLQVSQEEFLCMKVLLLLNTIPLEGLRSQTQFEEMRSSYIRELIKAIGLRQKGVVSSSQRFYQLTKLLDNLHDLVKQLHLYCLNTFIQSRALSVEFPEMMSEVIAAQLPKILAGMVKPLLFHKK
Method: In the antagonistic mode, testing must result in an intrinsic activity of between about 85% and about 15% of the maximal activity when (6β,11β,17β)-11-[4-(dimethylamino)phenyl]-4′,5′-dihydro-6-methylspiro[estra-4,9-diene-17,2′(3′H)-furan]-3-one is used as a reference.
(§1) The progestagenic activity of a compound of the invention (EC50 and intrinsic agonistic activity) was determined in an in vitro bioassay of Chinese hamster ovary (CHO) cells as described by W. G. E. J. Schoonen et al. (Anal. Biochem. 261 (1998), 222-224). […] The efficacy of the antagonistic effect was expressed as the percentage of the effect produced by a standard antagonist, (6β,11β,17β)-11-[4-(dimethylamino)phenyl]-4′,5′-dihydro-6-methylspiro[estra-4,9-diene-17,2′(3′H)-furan]-3-one.
(§2) It will be recognized by those skilled in the art that, in the setting described above, the EC50 determined is more or less absolute and depends on the intrinsic property of the tested compound itself, however, the IC50 depends on the amount and agonistic EC50 of the inducer as well as on the intrinsic property of the tested compound itself. Thus, with the same amount of inducer, a relatively strong antagonist will be able to produce a measurable IC50 whereas a relatively weak antagonist may fail to produce a detectable result.

progesterone receptor-B [2] = molecular target: T1, progesterone receptor-B; test: Progesterone receptor-B transactivation, agonistic mode (CHO cells, luciferase); format: cell-based; settings: for EC50: CHO cells, agonistic mode, read-out: PRBagoEC50; for Emax: CHO, read-out: PRBago Eff (%)
Description: For selecting compounds of the subject invention with a mixed modulating effect on the progesterone receptor, testing in the agonistic mode must result in an intrinsic activity of between about 15% and about 85% of the maximal activity when (16α)-16-ethyl-21-hydroxy-19-norpregn-4-ene-3,20-dione is used as a reference. Moreover, this maximal agonistic activity should be reached at a concentration of 10^−6 or less, and preferably at a concentration of 10^−8 or less.
as §1, §2

[3] = intrinsic antagonistic activity, percentage of effect of standard antagonist (6β,11β,17β)-11-[4-(dimethylamino)phenyl]-4′,5′-dihydro-6-methylspiro[estra-4,9-diene-17,2′(3′H)-furan]-3-one, 0.1 nM inducer
[4] = intrinsic agonistic activity, relative to reference (16α)-16-ethyl-21-hydroxy-19-norpregn-4-ene-3,20-dione

SMILES	Emax (progesterone receptor-B [1]; [3])	EC50 (progesterone receptor-B [1])	EC50 (progesterone receptor-B [2])	Emax (progesterone receptor-B [2]; [4])	PRBant Eff (%) (progesterone receptor-B [1]; [3])	PRBago Eff (%) (progesterone receptor-B [2]; [4])
C[C@@H]1C[C@H]2[C@@H]3CCC4=CC(=O)CCC4=C3[C@@H](c3ccc(-c4cccnc4)cc3)C[C@]2(C)[C@H]1C(=O)C1CC1 [Example 1, (11β,16α,17β)-17-cyclopropylcarbonyl-16-methyl-11-[4-(3-pyridinyl)-phenyl]estra-4,9-dien-3-one]	46.4%	0.267 nM	0.2 nM	49.2%	–	–
C[C@@H]1C[C@H]2[C@@H]3CCC4=CC(=O)CCC4=C3[C@@H](c3ccc(-c4ccc(F)nc4)cc3)C[C@]2(C)[C@H]1C(=O)C1CC1 [Example 5, (11β,16α,17β)-17-cyclopropylcarbonyl-11-[4-(6-fluoropyridin-3-yl)phenyl]-16-methylestra-4,9-dien-3-one]	50%	8.48 nM	0.49 nM	50.5%	–	–
COc1cncc(-c2ccc([C@H]3C[C@@]4(C)[C@@H](C[C@@H](C)[C@@H]4C(=O)C4CC4)[C@@H]4CCC5=CC(=O)CCC5=C43)cc2)c1 [Example 6, (11β,16α,17β)-17-cyclopropylcarbonyl-16-methyl-11-[4-(5-methoxy-pyridin-3-yl)phenyl]estra-4,9-dien-3-one]	34%	28 nM	1.3 nM	54%	–	–
C[C@@H]1C[C@H]2[C@@H]3CCC4=CC(=O)CCC4=C3[C@@H](c3ccc(-c4cnc5ccccc5c4)cc3)C[C@]2(C)[C@H]1C(=O)C1CC1 [Example 7, (11β,16α,17β)-17-cyclopropylcarbonyl-16-methyl-11-[4-(3-quinolidinyl)phenyl]estra-4,9-dien-3-one]	24%	3.14 nM	1 nM	50%	–	–
Cc1ccc(-c2ccc([C@H]3C[C@@]4(C)[C@@H](C[C@@H](C)[C@@H]4C(=O)C4CC4)[C@@H]4CCC5=CC(=O)CCC5=C43)cc2)nc1 [Example 11]	35%	0.8 nM	1.7 nM	56%	–	–
C[C@]12C[C@H](c3ccc(-c4cccnc4)cc3)C3=C4CCC(=O)C=C4CC[C@H]3[C@@H]1C[C@@H](/C=C/c1ccccc1)[C@@H]2C(=O)C1CC1 [Example 14, [11β,16α(E),17β]-17-cyclopropylcarbonyl-16-(2-phenylethenyl)-11-[4-(3-pyridinyl)phenyl]estra-4,9-dien-3-one]	34.5%	29 nM	5.7 nM	49.8%	–	–
CC[C@@H]1C[C@H]2[C@@H]3CCC4=CC(=O)CCC4=C3[C@@H](c3ccc(-c4ccc(OC)nc4)cc3)C[C@]2(C)[C@H]1C(=O)C1CC1 [Example 17, (11β,16α,17β)-17-cyclopropylcarbonyl-16-ethyl-11-[4-(6-methoxy-pyridin-3-yl)phenyl]-estra-4,9-dien-3-one]	51.7%	7.89 nM	1.3 nM	42%	–	–

More lines, in order of falling EC50 (progesterone receptor-B [1]), values ahead:

Emax (progesterone receptor-B [1]; [3])	EC50 (progesterone receptor-B [1])	EC50 (progesterone receptor-B [2])	Emax (progesterone receptor-B [2]; [4])	PRBant Eff (%) (progesterone receptor-B [1]; [3])	PRBago Eff (%) (progesterone receptor-B [2]; [4])	SMILES
32.5%	14.8 nM	2.6 nM	49.2%	–	–	C[C@@H]1C[C@H]2[C@@H]3CCC4=CC(=O)CCC4=C3[C@@H](c3ccc(-c4ccccn4)cc3)C[C@]2(C)[C@H]1C(=O)C1CC1 [Example 10, (11β,16α,17β)-17-cyclopropylcarbonyl-16-methyl-11-[4-(2-pyridinyl)phenyl]estra-4,9-dien-3-one]
37%	3.64 nM	0.36 nM	50.5%	–	–	C[C@@H]1C[C@H]2[C@@H]3CCC4=CC(=O)CCC4=C3[C@@H](c3ccc(-c4ccnnc4)cc3)C[C@]2(C)[C@H]1C(=O)C1CC1 [Example 8, (11β,16α,17β)-17-cyclopropylcarbonyl-16-methyl-11-[4-(4-pyridazinyl)phenyl]estra-4,9-dien-3-one]
–	3.3 nM	0.34 nM	–	47%	44.5%	C[C@@H]1C[C@H]2[C@@H]3CCC4=CC(=O)CCC4=C3[C@@H](c3ccc(-c4cccnc4)cc3)C[C@]2(C)[C@H]1C(=O)C1CC1.Cl [Example 2, (11β,16α,17β)-17-cyclopropylcarbonyl-16-methyl-11-[4-(3-pyridinyl)-phenyl]estra-4,9-dien-3-one hydrochloride]
26.5%	2.5 nM	4 nM	56%	–	–	C[C@@H]1C[C@H]2[C@@H]3CCC4=CC(=O)CCC4=C3[C@@H](c3ccc(-c4ccncc4)cc3)C[C@]2(C)[C@H]1C(=O)C1CC1 [Example 12, (11β,16α,17β)-17-cyclopropylcarbonyl-16-methyl-11-[4-(4-pyridinyl)phenyl]estra-4,9-dien-3-one]
35%	1.3 nM	1.13 nM	54%	–	–	C[C@@H]1C[C@H]2[C@@H]3CCC4=CC(=O)CCC4=C3[C@@H](c3ccc(-c4cnccn4)cc3)C[C@]2(C)[C@H]1C(=O)C1CC1 [Example 9, (11β,16α,17β)-17-cyclopropylcarbonyl-16-methyl-11-[4-(pyrazin-2-yl)phenyl]estra-4,9-dien-3-one]
44.5%	0.98 nM	0.74 nM	41.4%	–	–	C=C[C@@H]1C[C@H]2[C@@H]3CCC4=CC(=O)CCC4=C3[C@@H](c3ccc(-c4ccc(OC)nc4)cc3)C[C@]2(C)[C@H]1C(=O)C1CC1 [Example 15, (11β,16α,17β)-17-(cyclopropylcarbonyl)-16-ethenyl-11-[4-(6-methoxypyridin-3-yl)phenyl]estra-4,9-dien-3-one]
59%	0.628 nM	0.12 nM	41.5%	–	–	COc1ccc(-c2ccc([C@H]3C[C@@]4(C)[C@@H](C[C@@H](C)[C@@H]4C(=O)C4CC4)[C@@H]4CCC5=CC(=O)CCC5=C43)cc2)cn1 [Example 3, (11β,16α,17β)-17-cyclopropylcarbonyl-11-[4-(6-methoxypyridin-3-yl)phenyl]-16-methylestra 4,9-dien-3-one]
38%	0.61 nM	0.66 nM	46.8%	–	–	C=C[C@@H]1C[C@H]2[C@@H]3CCC4=CC(=O)CCC4=C3[C@@H](c3ccc(-c4cccnc4)cc3)C[C@]2(C)[C@H]1C(=O)C1CC1 [Example 13, (11β,16α,17β)-17-cyclopropylcarbonyl-16-ethenyl-11-[4-(3-pyridinyl)phenyl]estra-4,9-dien-3-one]
53%	0.596 nM	0.23 nM	34%	–	–	CC[C@@H]1C[C@H]2[C@@H]3CCC4=CC(=O)CCC4=C3[C@@H](c3ccc(-c4cccnc4)cc3)C[C@]2(C)[C@H]1C(=O)C1CC1 [Example 16, (11β,16α,17β)-17-cyclopropylcarbonyl-16-ethyl-11-[4-(3-pyridinyl)-phenyl]-estra-4,9-dien-3-one]
43%	0.47 nM	1.1 nM	46.5%	–	–	C[C@@H]1C[C@H]2[C@@H]3CCC4=CC(=O)CCC4=C3[C@@H](c3ccc(-c4ccc(Cl)nc4)cc3)C[C@]2(C)[C@H]1C(=O)C1CC1 [Example 4, (11β,16α,17β)-11-[4-(6-chloropyridin-3-yl)phenyl]-17-cyclopropyl-carbonyl-16-methylestra-4,9-dien-3-one]
